A word on the IC50: it is the concentration needed to halve the response being measured.

Experiment [1] deals with T1, COX-2 (Homo sapiens, UniProt P35354).
T1 sequence (P35354 18-604): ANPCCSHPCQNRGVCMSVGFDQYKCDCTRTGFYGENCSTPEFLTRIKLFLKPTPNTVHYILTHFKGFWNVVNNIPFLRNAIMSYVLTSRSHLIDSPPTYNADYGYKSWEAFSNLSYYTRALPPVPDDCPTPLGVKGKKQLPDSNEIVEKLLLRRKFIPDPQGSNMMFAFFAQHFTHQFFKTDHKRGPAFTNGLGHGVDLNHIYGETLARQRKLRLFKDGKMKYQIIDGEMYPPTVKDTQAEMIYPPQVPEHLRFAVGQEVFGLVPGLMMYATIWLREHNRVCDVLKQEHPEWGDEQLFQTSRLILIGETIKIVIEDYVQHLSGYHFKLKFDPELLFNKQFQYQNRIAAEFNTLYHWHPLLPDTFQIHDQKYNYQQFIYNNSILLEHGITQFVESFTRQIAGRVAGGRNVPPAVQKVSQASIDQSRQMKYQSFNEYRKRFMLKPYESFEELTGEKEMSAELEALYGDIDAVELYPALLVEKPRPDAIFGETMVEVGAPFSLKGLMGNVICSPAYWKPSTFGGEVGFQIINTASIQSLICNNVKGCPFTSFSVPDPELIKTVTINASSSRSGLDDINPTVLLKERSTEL
As to the kind of experiment: Human whole blood assay, COX-2 (LPS-induced PGE2 production). In kind it is cell-based. More on the design: endogenous in cells; host or cells: fresh heparinized human whole blood from volunteers, incubated with LPS. Conditions: LPS-induced PGE2, 24 hours at 37° C., read-out: COX-2 (IC50 μM) HWB. Here is the method: Human whole blood provides a protein and cell-rich milieu appropriate for the study of biochemical efficacy of anti-inflammatory compounds such as selective COX-2 inhibitors. […] This is consistent with the observation that COX-2 inhibitors have no effect on PGE2 production in normal blood. These inhibitors are active only after incubation of human whole blood with LPS, which induces COX-2. This assay can be used to evaluate the inhibitory effect of selective COX-2 inhibitors on PGE2 production. As well, platelets in whole blood contain a large amount of the COX-1 enzyme. Immediately following blood clotting, platelets are activated through a thrombin-mediated mechanism. This reaction results in the production of thromboxane B2 (TxB2) via activation of COX-1. Thus, the effect of test compounds on TxB2 levels following blood clotting can be examined and used as an index for COX-1 activity. Therefore, the degree of selectivity by the test compound can be determined by measuring the levels of PGE2 after LPS induction (COX-2) and TxB2 following blood clotting (COX-1) in the same assay.
A. COX-2 (LPS-induced PGE2 production)
Fresh blood is collected in heparinized tubes by venipuncture from both male and female volunteers. The subjects have no apparent inflammatory conditions and have not taken any NSAIDs for at least 7 days prior to blood collection. Plasma is immediately obtained from a 2 mL blood aliquot to use as blank (basal levels of PGE2). The remaining blood is incubated with LPS (100 μg/ml final concentration, Sigma Chem, #L-2630 from E. coli; diluted in 0.1% BSA (Phosphate buffered saline) for 5 minutes at room temperature. Five hundred μL aliquots of blood are incubated with either 2 μL of vehicle (DMSO) or 2 μL of a test compound at final concentrations varying from 10 nM to 30 μM for 24 hours at 37° C. At the end of the incubation, the blood is centrifuged at 12,000×g for 5 minutes to obtain plasma. A 100 μL aliquot of plasma is mixed with 400 μL of methanol for protein precipitation. The supernatant is obtained and is assayed for PGE2 using a radioimmunoassay kit (Amersham, RPA#530) after conversion of PGE2 to its methyl oximate derivative according to the manufacturer's procedure.

The target in experiment [2] is T1, COX-2. As to the kind of experiment: Whole cell assay for COX-2 using CHO[hCOX-2] transfected cell line. In kind it is cell-based. More on the design: expressed in transfected cells; host or cells: CHO cells stably transfected with pCDNAIII (CHO[hCOX-2]). The settings on record: CHO[hCOX-2] cells, PGE2 synthesis, 10 μM AA. The text has this:
Whole cell assays for COX-2 and COX-1 using CHO transfected cell lines
Chinese hamster ovary (CHO) cell lines which have been stably transfected with an eukaryotic expression vector pCDNAIII containing either the human COX-1 or COX-2 cDNA's are used for the assay. These cell lines are referred to as CHO[hCOX-1] and CHO[hCOX-2], respectively. For cyclooxygenase assays, CHO[hCOX-1] cells from suspension cultures and CHO[hCOX-2] cells prepared by trypsinization of adherent cultures are harvested by centrifugation (300×g, 10 min) and washed once in HBSS containing 15 mM HEPES, pH 7.4, and resuspended in HBSS, 15 mM HEPES, pH 7.4, at a cell concentration of 1.5×10^6 cells/ml. Drugs to be tested are dissolved in DMSO to 66.7-fold the highest test drug concentration. Compounds are typically tested at 8 concentrations in duplicate using serial 3-fold serial dilutions in DMSO of the highest drug concentration. Cells (0.3×10^6 cells in 200 μl) are preincubated with 3 μl of the test drug or DMSO vehicle for 15 min at 37° C. Working solutions of peroxide-free AA (5.5 μM and 110 μM AA for the CHO[hCOX-1] and CHO[COX-2] assays, respectively) are prepared by a 10-fold dilution of a concentrated AA solution in ethanol into HBSS containing 15 mM HEPES, pH 7.4. Cells are then challenged in the presence or absence of drug with the AA/HBSS solution to yield a final concentration of 0.5 μM AA in the CHO[hCOX-1] assay and a final concentration of 10 μM AA in the CHO[hCOX-2] assay. The reaction is terminated by the addition of 10 μl 1N HCl followed by neutralization with 20 μl of 0.5N NaOH. The samples are centrifuged at 300×g at 4° C. for 10 min, and an aliquot of the clarified supernatant is appropriately diluted for the determination of PGE2 levels using an enzyme-linked immunoassay for PGE2 (Correlate PGE2 enzyme immunoassay kit, Assay Designs, Inc.). Cyclooxygenase activity in the absence of test compounds is determined as the difference in PGE2 levels of cells challenged with arachidonic acid versus the PGE2 levels in cells mock-challenged with ethanol vehicle. Inhibition of PGE2 synthesis by test compounds is calculated as a percentage of the activity in the presence of drug versus the activity in the positive control samples.
Compounds of the present invention are inhibitors of cyclooxygenase-2 and are thereby useful in the treatment of cyclooxygenase-2 mediated diseases as enumerated above. The activities of the compounds against cyclooxygenase may be seen in the representative results shown below. In the assay, inhibition is determined by measuring the amount of prostaglandin E2 (PGE2) synthesized in the presence of arachidonic acid, cyclooxygenase-1 or cyclooxygenase-2 and a putative inhibitor. The IC50 values represent the concentration of putative inhibitor required to return PGE2 synthesis to 50% of that obtained as compared to the uninhibited control.

Take `CS(=O)(=O)c1ccc(-c2cc(CC(F)(F)F)oc(=O)c2-c2ccccc2)cc1` [Example 13, 4-(4-Methylsulfonyl)phenyl-3-phenyl-6-(2,2,2-trifluoroethyl)-pyran-2-one]: the IC50 in experiment [1] was determined as 10.5 µM; in experiment [2], 0.37 µM.
